How the values were obtained:
Orexin-A-induced rats = assay: Locomotor activity test using Orexin-A-induced rats; type: in vivo; settings: rat; for Locomotor activity increased by cerebral ventricular administration of Orexin-A: 30 mg/kg subcutaneous; for Locomotor activity (Counts/90 min): 30 mg/kg subcutaneous 30 min before Orexin-A (1 nmol) cerebral ventricular administration, mean
Method: The male SD rats described in Experimental Example 2 were used.
From the day before drug administration, the animals were acclimated to a locomotor activity measurement apparatus (Muromachi Kikai Co., Ltd.). Solvent (0.5% (w/v) methyl cellulose solution) and the compound (30 mg/kg) of Example 1 or the compound (30 mg/kg) of Example 2 were subcutaneously administered 30 min before administration of saline or Orexin-A (1 nmol). The locomotor activity was quantified for 30 min to 90 min after the cerebral ventricular administration of Orexin-A. A comparison with saline+solvent administration group was tested by Student's t-test (*p≤0.05). A comparison with Orexin-A+solvent administration group was tested by Dunnett's test (#p≤0.05).

human OX1 receptor = biological target: T1, human OX1 receptor (Homo sapiens, UniProt O43613); assay: Measurement of orexin receptor antagonistic activity (calcium fluorescence, FLIPRtetra); type: cell-based; settings: CHO, 10 μM test compound; CHO cells expressing human OX1 receptor; OX-A 1 nM; read-out: Human Orexin1 receptor inhibition (at 10 μM)
T1 construct: expressed in transfected cells; host or cells: CHO cells
T1 sequence (O43613 1-425): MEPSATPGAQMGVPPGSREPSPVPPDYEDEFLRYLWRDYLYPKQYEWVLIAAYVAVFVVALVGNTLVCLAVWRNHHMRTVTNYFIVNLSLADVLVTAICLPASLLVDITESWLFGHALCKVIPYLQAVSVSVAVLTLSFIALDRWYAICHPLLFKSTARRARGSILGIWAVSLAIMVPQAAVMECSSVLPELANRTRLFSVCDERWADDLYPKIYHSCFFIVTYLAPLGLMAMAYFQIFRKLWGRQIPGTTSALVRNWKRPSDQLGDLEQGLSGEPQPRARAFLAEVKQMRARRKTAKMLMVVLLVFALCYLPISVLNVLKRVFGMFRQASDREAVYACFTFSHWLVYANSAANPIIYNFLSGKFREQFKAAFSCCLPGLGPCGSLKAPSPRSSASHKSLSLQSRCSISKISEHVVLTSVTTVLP
Outline: (§1)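 Calcium fluorescence measured by FLIPRtetra every second for 2 min after orexin-A challenge, 1 nM final for OX1 and 0.3 nM final for OX2. Receptor-expressing CHO cells received compound in HEPES-buffered HBSS with 0.1% BSA just before agonist.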

human OX2 receptor = biological target: T2, human OX2 receptor (Homo sapiens, UniProt O43614); assay: as above; type: cell-based; settings: CHO, 10 μM test compound; CHO cells expressing human OX2 receptor; OX-A 0.3 nM; read-out: Human Orexin2 receptor inhibition (at 10 μM)
T2 construct: expressed in transfected cells; host or cells: CHO cells
T2 sequence (O43614 1-444): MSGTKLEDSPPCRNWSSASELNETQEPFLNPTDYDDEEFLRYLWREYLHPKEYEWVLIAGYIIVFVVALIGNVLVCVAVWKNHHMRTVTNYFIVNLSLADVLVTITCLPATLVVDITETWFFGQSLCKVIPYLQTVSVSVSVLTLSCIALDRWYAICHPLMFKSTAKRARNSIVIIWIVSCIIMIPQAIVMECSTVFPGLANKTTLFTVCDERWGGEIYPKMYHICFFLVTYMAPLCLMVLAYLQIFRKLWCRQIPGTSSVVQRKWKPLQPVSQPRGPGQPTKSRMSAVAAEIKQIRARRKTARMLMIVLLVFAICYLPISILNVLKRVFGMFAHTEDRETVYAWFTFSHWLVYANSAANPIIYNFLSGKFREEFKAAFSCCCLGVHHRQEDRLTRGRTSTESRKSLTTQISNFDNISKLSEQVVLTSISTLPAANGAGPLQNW
Outline: as §1

[1] = Measurement of solubility; type: physicochemical; settings: aqueous buffer, thermodynamic from solid; Britton-Robinson's Buffer pH 3, 37° C., shaking 2 hr; crystals from n-heptane suspension
Method: n-Heptane was added to the compounds of Examples 1, 2 and 102 at 40 mg/mL, respectively, and the mixtures were continued to be stirred at room temperature in a suspended state. After 3 to 7 days, the mixtures were filtered, and the obtained crystals as a sample were subjected to powder X-ray diffraction measurement (measurement condition: mentioned above) and solubility measurement.

Compound | inhibition at 10 µM (human OX1 receptor) [%] | inhibition at 10 µM (human OX2 receptor) [%] | solubility at 2 h [1] [mg/mL] | Locomotor activity increased by cerebral ventricular administration of Orexin-A (Orexin-A-induced rats) | Locomotor activity (Counts/90 min) (Orexin-A-induced rats)
Cc1cc(N2CCN(C(=O)c3cc(F)ccc3-n3nccn3)C[C@H](C)O2)nc(C)n1 [Example 1, ((7S)-2-(2,6-dimethylpyrimidin-4-yl)-7-methyl-1,2,5-oxadiazepan-5-yl)(5-fluoro-2-(2H-1,2,3-triazol-2-yl)phenyl)methanone] | 47 | 98 | ≥ 5 | significantly decreased | 3528
Cc1cc(N2CCN(C(=O)c3c(C)cccc3-c3ncccn3)CCO2)nc(C)n1 [Example 216, (2-(2,6-dimethylpyrimidin-4-yl)-1,2,5-oxadiazepan-5-yl)(2-methyl-6-(pyrimidin-2-yl)phenyl)methanone] | 59 | 101 |  |  | 
Cc1ccc(C(=O)N2CCN(c3cc(C)nc(C)n3)O[C@@H](C)C2)c(-c2ncccn2)c1 [Example 217, ((7S)-2-(2,6-dimethylpyrimidin-4-yl)-7-methyl-1,2,5-oxadiazepan-5-yl)(4-methyl-2-(pyrimidin-2-yl)phenyl)methanone] | 50 | 101 |  |  | 
Cc1nccc(N2CCN(C(=O)c3cc(Cl)ccc3-c3ncccn3)C[C@H](C)O2)n1 [Example 219, (5-chloro-2-(pyrimidin-2-yl)phenyl)((7S)-7-methyl-2-(2-methylpyrimidin-4-yl)-1,2,5-oxadiazepan-5-yl)methanone] | 72 | 100 |  |  | 
Cc1cc(N2CCN(C(=O)c3ccccc3-c3ncc(F)cn3)CCO2)nc(C)n1 [Example 222, (2-(2,6-dimethylpyrimidin-4-yl)-1,2,5-oxadiazepan-5-yl)(2-(5-fluoropyrimidin-2-yl)phenyl)methanone] | 32 | 99 |  |  | 
Cc1cc(N2CCN(C(=O)c3cc(F)c(F)cc3-c3ncc(F)cn3)CCO2)nc(C)n1 [Example 223, (4,5-difluoro-2-(5-fluoropyrimidin-2-yl)phenyl)(2-(2,6-dimethylpyrimidin-4-yl)-1,2,5-oxadiazepan-5-yl)methanone] | 17 | 101 |  |  | 
Cc1nc(N2CCN(C(=O)c3cc(Cl)ccc3-c3ncccn3)CCO2)cc(C(F)(F)F)n1 [Example 225, (5-chloro-2-(pyrimidin-2-yl)phenyl)(2-(2-methyl-6-(trifluoromethyl)pyrimidin-4-yl)-1,2,5-oxadiazepan-5-yl)methanone] | 74 | 103 |  |  | 
Cc1cc(N2CCN(C(=O)c3cc(F)c(F)cc3-c3ncccn3)CCO2)nc(C)n1 [Example 228, (4,5-difluoro-2-(pyrimidin-2-yl)phenyl)(2-(2,6-dimethylpyrimidin-4-yl)-1,2,5-oxadiazepan-5-yl)methanone] | 36 | 99 |  |  | 
Cc1nccc(N2CCN(C(=O)c3cc(Cl)ccc3-c3ncccn3)[C@H](C)CO2)n1 [Example 229, (5-chloro-2-(pyrimidin-2-yl)phenyl)((6R)-6-methyl-2-(2-methylpyrimidin-4-yl)-1,2,5-oxadiazepan-5-yl)methanone] | 40 | 101 |  |  | 
Cc1ncc(Cl)c(N2CCN(C(=O)c3cc(Cl)ccc3-c3ncccn3)[C@H](C)CO2)n1 [Example 230, ((6R)-2-(5-chloro-2-methylpyrimidin-4-yl)-6-methyl-1,2,5-oxadiazepan-5-yl)(5-chloro-2-(pyrimidin-2-yl)phenyl)methanone] | 66 | 103 |  |  | 
Cc1cc(N2CCN(C(=O)c3ccccc3-c3noc(C)n3)C[C@H](C)O2)nc(C)n1 [Example 232, ((7S)-2-(2,6-dimethylpyrimidin-4-yl)-7-methyl-1,2,5-oxadiazepan-5-yl)(2-(5-methyl-1,2,4-oxadiazol-3-yl)phenyl)methanone] | 55 | 102 |  |  | 

Continued, in another order:

inhibition at 10 µM (human OX1 receptor) [%] | inhibition at 10 µM (human OX2 receptor) [%] | solubility at 2 h [1] [mg/mL] | Compound | Locomotor activity increased by cerebral ventricular administration of Orexin-A (Orexin-A-induced rats) | Locomotor activity (Counts/90 min) (Orexin-A-induced rats)
68 | 101 | ≥ 5 | Cc1cc(N2CCN(C(=O)c3ccccc3-n3nccn3)C[C@H](C)O2)nc(C)n1 [Example 2, ((7S)-2-(2,6-dimethylpyrimidin-4-yl)-7-methyl-1,2,5-oxadiazepan-5-yl)(2-(2H-1,2,3-triazol-2-yl)phenyl)methanone] | significantly decreased | 2638
91 | 101 |  | Cc1cc(N2CCN(C(=O)c3ccc(F)cc3-c3ncccn3)C[C@H](C)O2)nc(C)n1 [Example 218, ((7S)-2-(2,6-dimethylpyrimidin-4-yl)-7-methyl-1,2,5-oxadiazepan-5-yl)(4-fluoro-2-(pyrimidin-2-yl)phenyl)methanone] |  | 
15 | 101 |  | Cc1cc(N2CCN(C(=O)c3cccc(F)c3-c3ncccn3)C[C@H](C)O2)nc(C)n1 [Example 220, ((7S)-2-(2,6-dimethylpyrimidin-4-yl)-7-methyl-1,2,5-oxadiazepan-5-yl)(3-fluoro-2-(pyrimidin-2-yl)phenyl)methanone] |  | 
51 | 102 |  | Cc1cc(N2CCN(C(=O)c3cc(Cl)ccc3-c3ncc(F)cn3)[C@H](C)CO2)nc(C)n1 [Example 221, (5-chloro-2-(5-fluoropyrimidin-2-yl)phenyl)((6R)-2-(2,6-dimethylpyrimidin-4-yl)-6-methyl-1,2,5-oxadiazepan-5-yl)methanone] |  | 
53 | 100 |  | Cc1cc(N2CCN(C(=O)c3cc(Cl)ccc3-c3ncc(F)cn3)CCO2)nc(C)n1 [Example 224, (5-chloro-2-(5-fluoropyrimidin-2-yl)phenyl)(2-(2,6-dimethylpyrimidin-4-yl)-1,2,5-oxadiazepan-5-yl)methanone] |  | 
80 | 101 |  | Cc1cc(N2CCN(C(=O)c3cc(Cl)ccc3-c3ncccn3)CCO2)nc(C)n1 [Example 226, (5-chloro-2-(pyrimidin-2-yl)phenyl)(2-(2,6-dimethylpyrimidin-4-yl)-1,2,5-oxadiazepan-5-yl)methanone] |  | 
78 | 97 |  | Cc1nc(N2CCN(C(=O)c3cc(F)c(F)cc3-c3ncccn3)C[C@H](C)O2)cc(C(F)(F)F)n1 [Example 227, (4,5-difluoro-2-(pyrimidin-2-yl)phenyl)((7S)-7-methyl-2-(2-methyl-6-(trifluoromethyl)pyrimidin-4-yl)-1,2,5-oxadiazepan-5-yl)methanone] |  | 
38 | 103 |  | Cc1cc(N2CCN(C(=O)c3cc(F)c(F)cc3-c3ncccn3)[C@H](C)CO2)nc(C)n1 [Example 231, (4,5-difluoro-2-(pyrimidin-2-yl)phenyl)((6R)-2-(2,6-dimethylpyrimidin-4-yl)-6-methyl-1,2,5-oxadiazepan-5-yl)methanone] |  | 
17 | 87 |  | COC(=O)c1ccccc1C(=O)N1CCN(c2cc(C)nc(C)n2)O[C@@H](C)C1 [Example 233, methyl 2-(((7S)-2-(2,6-dimethylpyrimidin-4-yl)-7-methyl-1,2,5-oxadiazepan-5-yl)carbonyl)benzoate] |  | 

From US10131653B2, “Heterocyclic compound” (TAKEDA PHARMACEUTICAL COMPANY LIMITED, priority 2015, dated 2018)
